Structures can show the parent of a compound that is named as a salt. One block for each compound: values may come before it.
Target: T1, human recombinant HPK1 (Homo sapiens, UniProt Q92918)
T1 construct: purchased BPS Bioscience
Assay: Inhibitory activity against human recombinant HPK1 (TR-FRET)
Format: biochemical
Settings: ULight-p70S6K peptide, ATP at Km, room temperature, 1 hour, 0.32 to 1000 nM compound
Method: Test Example: Evaluation of Inhibitory Activity Against Human Recombinant HPK1
The inhibitory activity against human recombinant HPK1 was evaluated using the Time-Resolved Fluorescence Resonance Energy Transfer (TR-FRET) technology of Perkin-Elmer. The test compound was prepared as a 20 mM stock solution with dimethyl sulfoxide (DMSO), serially diluted in a buffer solution, and used at final compound concentrations of 0.32 to 1000 nM. The evaluation of inhibitory activity was carried out at room temperature, using recombinant human HPK1 (BPS Bioscience). Briefly, recombinant human HPK1, serially diluted each test compound, ULight-p70S6K peptide substrate (PerkinElmer), and ATP at each concentration (Km and final concentration) were added to a kinase buffer solution (50 mM HEPES pH 7.4, 10 mM MgCl2, 1 mM EGTA, 3 mM MnCl2, 2 mM DTT, and 0.01% Tween-20). The resulting mixture was added to each well of a 384-well plate (Optiplate™ 384, white, PerkinElmer). The enzyme reaction was carried out at room temperature for 1 hour. After the reaction was suspended by adding 4 μL of a stop solution (10 mM EDTA) thereto, the mixture was stirred for 1 minute and then a detection solution containing Europium-labeled anti-phosphopeptide antibody (final concentration: 2 nM, PerkinElmer) was added thereto. The signals of TR-FRET at excitation wavelength (320 nm) and emission wavelength (665 nm) were detected using a microplate reader (Envision Multilabel Reader, Perkin-Elmer). Inhibition by the test compound was measured as % inhibition in the signals, compared to the control group treated with DMSO only. The IC50 value of each compound was calculated using the GraphPad Prism program (GraphPad Software, Inc., San Diego, CA, USA). The IC50 values of test compounds for inhibitory activity against HPK1 were classified as follows: • A: IC50≤10 nM • B: 10 nM<IC50≤50 nM • C: 50 nM<IC50≤100 nM • D: IC50>100 nM

T1 sequence (Q92918 whole entry): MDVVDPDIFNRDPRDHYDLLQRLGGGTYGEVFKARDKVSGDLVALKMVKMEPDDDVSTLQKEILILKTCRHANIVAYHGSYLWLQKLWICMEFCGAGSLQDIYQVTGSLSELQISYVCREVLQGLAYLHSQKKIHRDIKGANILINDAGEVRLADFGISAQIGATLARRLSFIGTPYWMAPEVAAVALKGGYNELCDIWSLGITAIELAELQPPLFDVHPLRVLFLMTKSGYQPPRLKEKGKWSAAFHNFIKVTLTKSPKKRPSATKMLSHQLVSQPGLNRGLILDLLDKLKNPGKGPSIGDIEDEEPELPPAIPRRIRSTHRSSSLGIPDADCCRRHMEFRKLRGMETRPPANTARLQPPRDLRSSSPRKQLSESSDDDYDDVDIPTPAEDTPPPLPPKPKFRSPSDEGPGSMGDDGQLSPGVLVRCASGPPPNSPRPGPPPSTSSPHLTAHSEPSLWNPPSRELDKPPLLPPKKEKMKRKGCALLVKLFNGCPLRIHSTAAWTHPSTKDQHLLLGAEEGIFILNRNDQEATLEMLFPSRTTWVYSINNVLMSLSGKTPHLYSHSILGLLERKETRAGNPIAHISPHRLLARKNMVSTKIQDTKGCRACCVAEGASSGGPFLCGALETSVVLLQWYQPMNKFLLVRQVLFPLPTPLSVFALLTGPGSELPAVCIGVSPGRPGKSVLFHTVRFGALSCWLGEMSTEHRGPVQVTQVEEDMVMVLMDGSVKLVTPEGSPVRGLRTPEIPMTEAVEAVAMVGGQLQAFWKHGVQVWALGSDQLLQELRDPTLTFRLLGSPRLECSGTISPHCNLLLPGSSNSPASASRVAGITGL

Structure (SMILES): COc1cccc(F)c1-c1nccc(Nc2cc(N3CCC[C@H](O)C3)c(-c3ccc(CN4CCCC(O)C4)nc3)cn2)n1 (stereo partly drawn) [Example 49, 1-((6′-((2-(2-fluoro-6-methoxyphenyl)pyrimidin-4-yl)amino)-4′-((S)-3-hydroxypiperidin-1-yl)-[3,3′-bipyridin]-6-yl)methyl)piperidin-3-ol]
IC50: > 100 nM

Structure (SMILES): COc1cccc(F)c1-c1nccc(Nc2cc(N3CCC[C@H](C(N)=O)C3)c(-c3cnn(C4CCOCC4)c3)cn2)n1 [Example 50, (S)-1-(2-((2-(2-fluoro-6-methoxyphenyl)pyrimidin-4-yl)amino)-5-(1-(tetrahydro-2H-pyran-4-yl)-1H-pyrazol-4-yl)pyridin-4-yl)piperidin-3-carboxamide]
IC50: > 100 nM

Structure (SMILES): COc1cccc(F)c1-c1nccc(Nc2cc(N3CCC[C@@H](C(N)=O)C3)c(-c3cnn(C4CCOCC4)c3)cn2)n1 [Example 51, (R)-1-(2-((2-(2-fluoro-6-methoxyphenyl)pyrimidin-4-yl)amino)-5-(1-(tetrahydro-2H-pyran-4-yl)-1H-pyrazol-4-yl)pyridin-4-yl)piperidin-3-carboxamide]
IC50: 50 to 100 nM

Structure (SMILES): COc1cccc(F)c1-c1nccc(Nc2cc(N3CCC[C@H](N)C3)c(-c3cnn(C4CCOCC4)c3)cn2)n1 [Example 52, (S)-N-(4-(3-aminopiperidin-1-yl)-5-(1-(tetrahydro-2H-pyran-4-yl)-1H-pyrazol-4-yl)pyridin-2-yl)-2-(2-fluoro-6-methoxyphenyl)pyrimidin-4-amine hydrochloride]
IC50: ≤ 10 nM

Structure (SMILES): COc1cccc(F)c1-c1nccc(Nc2cc(N3CCC[C@@H](N)C3)c(-c3cnn(C4CCOCC4)c3)cn2)n1 [Example 53, (R)-N-(4-(3-aminopiperidin-1-yl)-5-(1-(tetrahydro-2H-pyran-4-yl)-1H-pyrazol-4-yl)pyridin-2-yl)-2-(2-fluoro-6-methoxyphenyl)pyrimidin-4-amine]
IC50: ≤ 10 nM

Structure (SMILES): COc1cccc(F)c1-c1nc(Nc2cc(N3CCC[C@H](O)C3)c(-c3ccc(C(=O)N4CCC(O)CC4)nc3)cn2)ccc1[N+](=O)[O-] [Example 54, (6′-((6-(2-fluoro-6-methoxyphenyl)-5-nitropyridin-2-yl)amino)-4′-((S)-3-hydroxypiperidin-1-yl)-[3,3′-bipyridin]-6-yl)(4-hydroxypiperidin-1-yl)methanone]
IC50: 10 to 50 nM

Structure (SMILES): COc1cccc(F)c1-c1nccc(Nc2cc(N3CCC[C@H](O)C3)c(-c3ccc(CN4CCC(N)CC4)nc3)cn2)n1 [Example 55, (S)-1-(6′-((4-aminopiperidin-1-yl)methyl)-6-((2-(2-fluoro-6-methoxyphenyl)pyrimidin-4-yl)amino)-[3,3′-bipyridin]-4-yl)piperidin-3-ol hydrochloride]
IC50: 10 to 50 nM

Structure (SMILES): COc1cccc(F)c1-c1nccc(Nc2cc(N3CCC[C@H](O)C3)c(-c3ccc(C(F)(F)F)nc3)cn2)n1 [Example 57, (S)-1-(6-((2-(2-fluoro-6-methoxyphenyl)pyrimidin-4-yl)amino)-6′-(trifluoromethyl)-[3,3′-bipyridin]-4-yl)piperidin-3-ol]
IC50: 50 to 100 nM

Structure (SMILES): COc1cccc(F)c1-c1nc(Nc2cc(N3CCC[C@H](O)C3)c(-c3cnn(C4CCOCC4)c3)cn2)ccc1C [Example 58, (3S)-1-(2-((6-(2-fluoro-6-methoxyphenyl)-5-methylpyridin-2-yl)amino)-5-(1-(tetrahydro-2H-pyran-4-yl)-1H-pyrazol-4-yl)pyridin-4-yl)piperidin-3-ol]
IC50: > 100 nM

Structure (SMILES): COc1cccc(F)c1-c1nc(Nc2cc(N3CCC[C@H](O)C3)c(-c3cnn(C4CCOCC4)c3)cn2)ccc1C#N [Example 59, 2-(2-fluoro-6-methoxyphenyl)-6-((4-((S)-3-hydroxypiperidin-1-yl)-5-(1-(tetrahydro-2H-pyran-4-yl)-1H-pyrazol-4-yl)pyridin-2-yl)amino)nicotinonitrile]
IC50: ≤ 10 nM

Structure (SMILES): COC(=O)c1ccc(Nc2cc(N3CCC[C@H](O)C3)c(-c3cnn(C4CCOCC4)c3)cn2)nc1-c1c(F)cccc1OC [Example 60, methyl 2-(2-fluoro-6-methoxyphenyl)-6-((4-((S)-3-hydroxypiperidin-1-yl)-5-(1-(tetrahydro-2H-pyran-4-yl)-1H-pyrazol-4-yl)pyridin-2-yl)amino)nicotinate]
IC50: ≤ 10 nM

Structure (SMILES): COc1cccc(F)c1-c1nccc(Nc2cc(N3CCC[C@H](O)C3)c(-c3ccc4nccn4c3)cn2)n1 [Example 61, (S)-1-(2-((2-(2-fluoro-6-methoxyphenyl)pyrimidin-4-yl)amino)-5-(imidazo[1,2-a]pyridin-6-yl)pyridin-4-yl)piperidin-3-ol]
IC50: 10 to 50 nM

Structure (SMILES): COc1cccc(F)c1-c1nccc(Nc2cc(N3CCC[C@H](O)C3)c(-c3ccc4nncn4c3)cn2)n1 [Example 62, (S)-1-(5-([1,2,4]triazolo[4,3-a]pyridin-6-yl)-2-((2-(2-fluoro-6-methoxyphenyl)pyrimidin-4-yl)amino)pyridin-4-yl)piperidin-3-ol]
IC50: 50 to 100 nM

Structure (SMILES): COc1cccc(F)c1-c1nccc(Nc2cc(N3CCC(CCN(C)C)CC3)c(-c3cnn(C4CCOCC4)c3)cn2)n1 [Example 64, N-(4-(4-(2-(dimethylamino)ethyl)piperidin-1-yl)-5-(1-(tetrahydro-2H-pyran-4-yl)-1H-pyrazol-4-yl)pyridin-2-yl)-2-(2-fluoro-6-methoxyphenyl)pyrimidin-4-amine]
IC50: ≤ 10 nM

Now from value to compound:

IC50: ≤ 10 nM
Structure (SMILES): COc1cccc(F)c1-c1nccc(Nc2cc(N3CCC(C4(O)CC4)CC3)c(-c3cnn(C4CCOCC4)c3)cn2)n1 [Example 65, 1-(1-(2-((2-(2-fluoro-6-methoxyphenyl)pyrimidin-4-yl)amino)-5-(1-(tetrahydro-2H-pyran-4-yl)-1H-pyrazol-4-yl)pyridin-4-yl)piperidin-4-yl)cyclopropan-1-ol]

IC50: ≤ 10 nM
Structure (SMILES): COc1cccc(F)c1-c1nccc(Nc2cc(N3CCC(C(C)O)CC3)c(-c3cnn(C4CCOCC4)c3)cn2)n1 (centres unmarked) [Example 66, 1-(1-(2-((2-(2-fluoro-6-methoxyphenyl)pyrimidin-4-yl)amino)-5-(1-(tetrahydro-2H-pyran-4-yl)-1H-pyrazol-4-yl)pyridin-4-yl)piperidin-4-yl)ethan-1-ol]

IC50: ≤ 10 nM
Structure (SMILES): COc1cccc(F)c1-c1nccc(Nc2cc(N3CCC(C(C)(C)CO)CC3)c(-c3cnn(C4CCOCC4)c3)cn2)n1 [Example 67, 2-(1-(2-((2-(2-fluoro-6-methoxyphenyl)pyrimidin-4-yl)amino)-5-(1-(tetrahydro-2H-pyran-4-yl)-1H-pyrazol-4-yl)pyridin-4-yl)piperidin-4-yl)-2-methylpropan-1-ol]

IC50: 10 to 50 nM
Structure (SMILES): COc1cccc(F)c1-c1nccc(Nc2cc(N3CCN(C)CC3)c(-c3cnn(C4CCOCC4)c3)cn2)n1 [Example 68, 2-(2-fluoro-6-methoxyphenyl)-N-(4-(4-methylpiperazin-1-yl)-5-(1-(tetrahydro-2H-pyran-4-yl)-1H-pyrazol-4-yl)pyridin-2-yl)pyrimidin-4-amine]

IC50: ≤ 10 nM
Structure (SMILES): O[C@H]1CCCN(c2cc(Nc3ccnc(-c4cc5nccnc5cc4F)n3)ncc2-c2cnn(C3CCOCC3)c2)C1 [Example 69, (S)-1-(2-((2-(7-fluoroquinoxalin-6-yl)pyrimidin-4-yl)amino)-5-(1-(tetrahydro-2H-pyran-4-yl)-1H-pyrazol-4-yl)pyridin-4-yl)piperidin-3-ol]

IC50: ≤ 10 nM
Structure (SMILES): COc1cccc(F)c1-c1nc(Nc2cc(N3CCC[C@H](N)C3)c(-c3cnn(C4CCOCC4)c3)cn2)ccc1[N+](=O)[O-] [Example 70, 4-((S)-3-aminopiperidin-1-yl)-N-(6-(2-fluoro-6-methoxyphenyl)-5-nitropyridin-2-yl)-5-(1-(tetrahydro-2H-pyran-4-yl)-1H-pyrazol-4-yl)pyridin-2-amine hydrochloride]

IC50: ≤ 10 nM
Structure (SMILES): COC(=O)c1ccc(Nc2cc(N3CCC[C@H](N)C3)c(-c3cnn(C4CCOCC4)c3)cn2)nc1-c1c(F)cccc1OC [Example 71, methyl 6-((4-((S)-3-aminopiperidin-1-yl)-5-(1-(tetrahydro-2H-pyran-4-yl)-1H-pyrazol-4-yl)pyridin-2-yl)amino)-2-(2-fluoro-6-methoxyphenyl)nicotinate hydrochloride]

IC50: ≤ 10 nM
Structure (SMILES): COc1cccc(F)c1-c1nccc(Nc2cc(N3CCC[C@H](O)C3)c(-c3cnn(C(F)F)c3)cn2)n1 [Example 72, (S)-1-(5-(1-(difluoromethyl)-1H-pyrazol-4-yl)-2-((2-(2-fluoro-6-methoxyphenyl)pyrimidin-4-yl)amino)pyridin-4-yl)piperidin-3-ol]

IC50: ≤ 10 nM
Structure (SMILES): COc1cccc(F)c1-c1nccc(Nc2cc(N3CCC[C@H](N)C3)c(-c3cnn(C(F)F)c3)cn2)n1 [Example 73, (S)-N-(4-(3-aminopiperidin-1-yl)-5-(1-(difluoromethyl)-1H-pyrazol-4-yl)pyridin-2-yl)-2-(2-fluoro-6-methoxyphenyl)pyrimidin-4-amine hydrochloride]
